From patent US20060194262A1, “P27 ubiquitination assay and methods of use” (priority 2004, published 2006)
Like-named read-outs stand apart in the source and are kept apart here.

Legend:
[1] = system: T1, p27 ubiquitination (E1, E2, E3 SCF^Skp2, Cks1); assay: p27 ubiquitination assay, plate capture format (DMSO tolerance); format: biochemical, Human
T1 construct: His; Strep tag (cleaved yes); GST; made in house; host or cells: Sf9 (His-E1; p27/Cdk2/cyclin E); E. coli (His-UbcH3, Cks1); baculovirus-infected insect cells (SCF-Skp2)
Text: This assay measures the ubiquitination of cell cycle inhibitor p27 in a high-throughput-capable in vitro reconstituted system that mimics the ubiquitination of p27 in vivo. Ubiquitinated p27 is captured using an anti-p27 antibody-coated plate and detected by Europium (Eu)-labeled streptavidin that binds biotinylated ubiquitin. The assay as described below incorporates the addition of a test compound to the ubiquitination reaction.
Assay mix A (see below) contained: 3× concentration ubiquitin buffer (120 mM Tris·HCl pH 7.5, 15 mM MgCl2), 3 mM dithiothreitol, 15 ng/μL E1, 450 ng/μLE2, 15 ng/μL E3, and 12 ng/μL pre-phosphorylated p27.
Starting solution (see below) contained 0.75 mg/mL biotinylated ubiquitin and 0.75 ng/μL Cks1 in assay dilution buffer (30 mM Tris·HCl pH7.5, 1 mM DTT, 19.5% glycerol). Starting solution for negative control contains 0.75 mg/mL biotinylated ubiquitin in assay dilution buffer (30 mM Tris·HCl pH7.5, 1 mM DTT, 19.5% glycerol).
The capture plates were coated as follows. […]
The ubiquitination reaction was run as follows: 5 μL of a test compound in 6% dimethylsulfoxide (DMSO) was added to each well of a V-bottom plate. […] 25 μL enhancement solution was added per well, and the plates were read to determine the amount of time-resolved fluorescence emission at 615 nm for Europium chelate. […]

[2] = system: p27 ubiquitination (E1, E2, E3 SCF^Skp2, Cks1); settings: reaction includes 5 mM MgCl2
Text: A homogenous, time-resolved fluorescence resonance energy transfer (HTR-FRET) assay was developed for high throughput screening of compounds that block p27 ubiquitination in vitro. In this assay, p27 is modified with a mixture of ubiquitin (Ub) and biotinylated ubiquitin (Bio-Ub) in the presence of E1, E2, E3 and Cks1 (FIG. 11). A rabbit anti-phospho-p27 antibody and Lance Eu labeled Protein G (Eu-PRG) were used as a donor and Cy5-labeled streptavidin (Cy5-SA or Dylite-SA) is used as an acceptor. Ubiquitinated p27 is detected by FRET signal generated between Eu and Cy5.
In this format, Bio-Ub is used as a tracer to label ubiquitinated p27. Lance Eu-labeled Protein G (Eu-PRG) coupled to anti-phospho-p27 is used as the FRET donor, and SA-Cy5 is used as the FRET acceptor. The FRET signal is measured as the ratio of fluorescence emission of Cy5 at 665 nm over that of Eu at 620 nm after excitation of Eu at 340 nm.
Next, stopping conditions for the p27 ubiquitination were determined.
Assay Procedures: • 1) Prepare Starting solutions and incubate at room temperature for 20˜30 min Start+Cks1: 12 μM Ub, 3 μM Bio-Ub, and 1.875 ng/μl (187.5 nM) Cks1 in assay dilution buffer. Start−Cks1: 12 μM Ub and 3 μM Bio-Ub in assay dilution buffer. • 2) Prepare Assay mix A as indicated in Table 3 • 3) Set up reaction: In an assay plate, add 5 μl/well of Assay mix A, compound in 6% DMSO and 0.03% Brij35 (30 μg/ml; final concentration at 10 μg/ml), and Starting solutions. The total assay volume is 15 μl. Incubate at room temperature (˜23° C.-25° C.) for 1 hour. • 4) Stop the reaction with the addition of 15 μl/well of Stopping solution (40 mM EDTA, 0.1% Tween 20, 250 nM Cy5, 2 nM Eu-PRG, and 8 nM anti-phospho-p27 in PBS)

E1 = target: T2, E1 (Homo sapiens, UniProt P22314); assay: apparent Km of ubiquitin for E1; format: biochemical; settings: read-out: apparent Km of Ub for E1
T2 sequence (P22314 1-1058): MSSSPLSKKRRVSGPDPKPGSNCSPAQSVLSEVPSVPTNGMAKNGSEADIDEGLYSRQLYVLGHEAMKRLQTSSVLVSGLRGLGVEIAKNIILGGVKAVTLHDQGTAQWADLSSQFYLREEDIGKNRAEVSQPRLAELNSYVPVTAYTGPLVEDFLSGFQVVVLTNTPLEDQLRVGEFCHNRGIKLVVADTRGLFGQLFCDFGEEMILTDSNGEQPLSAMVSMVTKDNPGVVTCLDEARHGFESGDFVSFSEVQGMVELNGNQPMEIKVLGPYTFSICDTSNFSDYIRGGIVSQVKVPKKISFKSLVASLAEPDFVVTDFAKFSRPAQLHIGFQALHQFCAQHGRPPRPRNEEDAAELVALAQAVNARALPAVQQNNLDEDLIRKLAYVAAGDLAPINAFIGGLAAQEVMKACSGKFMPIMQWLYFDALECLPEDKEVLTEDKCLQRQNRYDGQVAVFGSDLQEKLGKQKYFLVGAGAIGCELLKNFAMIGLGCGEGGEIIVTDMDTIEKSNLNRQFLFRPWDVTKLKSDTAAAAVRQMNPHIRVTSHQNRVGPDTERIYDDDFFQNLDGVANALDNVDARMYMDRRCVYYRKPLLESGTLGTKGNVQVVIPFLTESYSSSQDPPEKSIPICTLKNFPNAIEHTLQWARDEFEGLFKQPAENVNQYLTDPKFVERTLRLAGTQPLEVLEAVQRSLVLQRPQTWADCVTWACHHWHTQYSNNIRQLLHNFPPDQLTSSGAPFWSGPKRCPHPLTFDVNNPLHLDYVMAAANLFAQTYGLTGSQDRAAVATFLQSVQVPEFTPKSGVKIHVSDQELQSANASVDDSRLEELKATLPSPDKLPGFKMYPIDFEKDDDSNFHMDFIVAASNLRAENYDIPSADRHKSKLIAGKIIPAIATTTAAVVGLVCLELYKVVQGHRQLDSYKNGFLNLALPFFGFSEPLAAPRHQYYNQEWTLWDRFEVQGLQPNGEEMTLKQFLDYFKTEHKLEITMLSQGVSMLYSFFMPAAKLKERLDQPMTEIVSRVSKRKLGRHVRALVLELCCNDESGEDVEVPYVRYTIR
Method: In an HTR-FRET assay, the background FRET increases as the concentrations of Eu and Cy5 increase. In general, to achieve a low background signal, Eu concentrations should be in the low nM range while Cy5 concentrations can be up to 100-200 nM. To determine the optimal concentration of Bio-Ub used in the p27 Ub assay, 80 nM of p27 was ubiquitinated with 0-4 μM of Bio-Ub and diluted 1:4 with a detection mixture containing a final concentration of 5 nM Eu-PRG, 10 nM anti-p27, and 25-125 nM SA-Cy5. 1 uM of Bio-Ub with 125 nM of Cy5-SA gave the best signal-to-background (S/B) ratio (FIG. 12). […] Since the apparent Km of Ub for E1 is about 2 μM, 4 μM of unlabeled ubiquitin was used in the reaction (2×apparent Km). Ubiquitination of p27 in the presence of 4 μM Ub and 1 μM Bio-Ub was very similar to that of p27 in the presence of saturating concentrations of Bio-Ub (28 μM) (FIG. 13).

C[S+](C)[O-] [DMSO, dimethylsulfoxide]
p27 ubiquitination activity remained ([1]; 2% DMSO, titration between 0 and 10% DMSO): approximately 60% | p27 ubiquitination ([1]; above 15% (v/v) of DMSO, initial titration): nearly completely lost

O=C(O)CN(CCN(CC(=O)O)CC(=O)O)CC(=O)O [EDTA]
effect on p27 ubiquitination ([2]; 5 mM EDTA alone): no effect | p27 ubiquitination ([2]; 10 mM EDTA): only partially inhibited | Ubiquitination of p27 ([2]; 20 mM EDTA, data not shown): completely inhibited

ubiquitin
Km (E1): ~2 µM
